Test results as given in a melting point compilation (Tetko et al.; mined from patent text by program, amines drawn as free bases though some values may be those of a salt).

Row | Compound | melting point [°C]
1 | CCOC(=O)OC1CCC2(C)C3=C(CCC2C1)C1=CCC(C(C)CCCC(C)C)C1(C)CC3 (stereo unspecified) | 101 to 106
2 | COc1ccc(NC(=O)C2CCc3c(OCc4ccccc4)cccc32)c(OC)c1 (stereo unspecified) | 130
3 | COc1ccc(-c2ccc(C(=O)O)cc2)cc1 | 250 to 254
4 | Nc1nc(-c2cccnc2Cl)c(-c2cccnc2Cl)s1 | 273 to 274
5 | CCCCOc1nc(=O)n(C(=O)NC)s1 | 108
6 | COc1cc(Nc2ncc(C#N)c(-c3ccccc3)n2)cc(OC)c1OC | 98
7 | CC(C)Oc1ccc([N+](=O)[O-])cc1OCCN1C(=O)c2ccccc2C1=O | 132
8 | CCCCc1nc2cc(C)c(C)cc2n1Cc1ccc(C(=O)O)cc1 | 220
9 | CN(C)C(=O)c1ccccc1I | 33 to 36
10 | O=c1[nH]c2cscc2c(=O)n1CCN1CCC(=C(c2ccc(F)cc2)c2ccc(F)cc2)CC1 | 204 to 206
11 | COc1ccnc(N2CCN(Cc3ccc(C(C)NC(C)=O)cc3)CC2)n1 (stereo unspecified) | 113 to 115
12 | CCOC(=O)C=Cc1ccc2c(c1)CC(CNC(=O)OC(C)(C)C)CC2 (stereo unspecified) | 117 to 119
13 | CON=C1CN(c2c(F)cc3c(=O)c(C(=O)O)cn(C4CC4)c3c2Cl)CC12CN(C(=O)OC(C)(C)C)C2 | 203 to 204
14 | Cc1cccc(C)c1N1CC(C)N(c2c(C)cccc2C)C1=N (single isomer, unassigned; (+)) | 99 to 101
15 | CC(C(=O)c1ccccc1)(c1ccccc1)c1ccccc1Sc1ccccc1C(C)(C(=O)c1ccccc1)c1ccccc1 (stereo unspecified) | 101
16 | CCCCN(CCCOc1ccc2ccccc2c1)c1ccc(OC)cc1 | 127
17 | Cc1noc(-c2ccc(C(=O)N3Cc4cccn4Cc4ccccc43)cc2)n1 | 177 to 179
18 | CC(=CC(=O)NC(C)(C)C)OC(=O)c1cc(S(C)(=O)=O)c(Cl)cc1NCc1ccco1 | 140 to 145
19 | CCOC(=O)CC[C@H](NC(=O)c1ccc2c(c1)CCN2)C(=O)OCC | 96 to 97
20 | Cc1cnc(C2(CCCCN3CCC(N4Cc5ccccc5C4=O)CC3)c3ccccc3-c3ccccc32)s1 | 146 to 148
21 | CC(C)(C)CC(C)(C)c1cc(-n2nc3ccc(S(=O)(=O)c4ccccc4)cc3n2)c(O)c(C(C)(C)c2ccccc2)c1 | 170 to 171
22 | CNC(=O)C1N=C(c2ccccc2)c2cc(Cl)ccc2NC1=O (stereo unspecified) | 294
23 | CC1=CC(c2ccccc2C(F)(F)F)C([N+](=O)[O-])=C(C)N1 (stereo unspecified) | 201
24 | CCC(C)(C)c1cc(C(=O)c2ccccc2)c(O)cc1O | 100 to 104

Row | Compound | melting point [°C]
25 | CCNC(=O)N1N=C(c2ccc([N+](=O)[O-])cc2)c2cc(Cl)ccc2CC1C (stereo unspecified) | 170 to 172
26 | CC(=O)Nc1ccc(S(=O)(=O)N2CCCCC2)cc1 | 137 to 139
27 | Cc1cc([N+](=O)[O-])c(OCc2ccccc2)c(Cl)c1C | 74 to 75
28 | COc1ccc(-c2sc3c(c2CN(C)Cc2ccccc2)c(=O)c(C(C)O)cn3Cc2ccccc2F)cc1 (stereo unspecified) | 183 to 187
29 | CSCCC(=O)N(C)c1cnc(-c2cccnc2)s1 | 116 to 118
30 | CC(C)(O)Cn1c(CON)nc2c(N)nc3ccccc3c21 | 178 to 179
31 | O=C(O)c1ccc(Oc2ccc3c(c2)CCN(C2CCN(C4CCC4)CC2)C3=O)cc1 | 255 to 256
32 | OCCOc1cccc2ncccc12 | 109 to 111
33 | c1cc2c(cc1CCSSCCc1ccc3c(c1)OCO3)OCO2 | 76 to 78
34 | CCCC[C@H](NC(=O)[C@H](CC(C)C)NC(=O)c1cccc(C)c1)C(=O)CSCc1ccco1 | 123 to 126
35 | Cn1cc(-c2ccccc2)c(=O)c(-c2cccc(F)c2)c1 | 134
36 | NCC1Cc2c(C(F)(F)F)ccc(Cl)c2O1 (stereo unspecified) | > 250
37 | Oc1c(Br)c(Br)c(F)c(Br)c1Br | 178 to 180
38 | CC(C)c1cc(CCCOc2ncccc2CC(=O)O)n(Cc2ccc(Cl)cc2Cl)n1 | 111 to 112
39 | CSc1ccc(-c2ccc(C(=O)Nc3ccc4cc(CN5CCCC5)cnc4c3C)c(F)c2)cc1 | 189 to 190
40 | COc1ccc(S(=O)(=O)N(CC(N)=O)c2ccc(Cl)cc2C(O)c2ccccc2Cl)c(OC)c1 (stereo unspecified) | 158
41 | CCCCC(CCCC)(CC(=O)Nc1cccc(OCc2ccc3ccc(F)cc3n2)c1)C(=O)O | 156 to 157
42 | COc1ccc(-c2cc(=Nc3c(C)cc(C)cc3C)n(C)c(=NCc3ccccc3)n2C)cc1OC | 97 to 100
43 | CCOCC(O)COc1ccc(NC(=O)CCS(C)(=O)=O)cc1 (stereo unspecified) | 111 to 112
44 | COc1ccc2nc3c(nc2c1)SC(C#N)=C(C#N)S3 | 154 to 156
45 | CC(C)c1ccc(-c2cccc(-c3cccc(C(=O)O)c3)n2)cc1 | 215 to 216
46 | COc1c(C)cc(N2CCN(c3ccc([N+](=O)[O-])cc3)CC2)cc1C | 135
47 | CCCCN1CCC[C@H]1CNC(=O)c1cc(Cl)cc2c1OC(C)(C)CN2C | 110 to 112
48 | COc1ccc(CCNC(=O)C2CCC2)cc1C | 103 to 104

Row | Compound | melting point [°C]
49 | Cc1c(F)c(F)cc(F)c1C(=O)O | 104 to 105
50 | Cc1nc2cc(C(C)C)ccc2n1C | 130 to 131
51 | CC(C)CC(=O)Nc1cccc(-c2ccnc3c(-c4ccc(CO)cc4)cnn23)c1 | 170 to 172
52 | O=C1Cc2c(ccc3ccc(C(O)C(F)(F)F)cc23)O1 (stereo unspecified) | 208 to 209
53 | CCOC(=O)CCc1cc(OCC(=O)O)nn1Cc1ccc(Cl)cc1Cl | 129 to 131
54 | O=Cc1ccc(NCc2ccc(F)cc2)cn1 | 167 to 169
55 | Cc1c(NC(=O)c2ccc(-c3ccc(Cl)cc3Cl)cc2F)ccc2cc(CN3CCCC3)cnc12 | 162 to 163
56 | CC(=O)c1ccc(-c2ccccc2F)cc1 | 84.5 to 86.5
57 | COc1cc(Nc2nccc(-c3ccc(Cl)nc3)n2)cc(OC)c1OC | 191 to 192
58 | COc1cc(/C=C\c2cnc(N)nc2N)cc(OC)c1OC | 175 to 177
59 | O=C1NC(C2CCCCC2)C1O (stereo unspecified) | 140
60 | CCCC(=O)Nc1n[nH]c2cc(-c3ccc(OCc4ccccc4)cc3)c(-c3ccc(OCc4ccccc4)cc3)cc12 | 140
61 | O=c1oc2ccccc2c(O)c1C1CC(c2ccc(OCc3ccc(-c4ccc(-c5ccccc5)cc4)cc3)cc2)Cc2ccccc21 (stereo unspecified) | 245 to 248
62 | COc1ccc(-c2nc(C)nn2-c2ccccc2S(N)(=O)=O)cc1OC | 176 to 178
63 | CC1C(c2ccc(Cl)cc2)SC(=O)N1C(=O)NN1CCCCC1 (stereo unspecified) | 92 to 93
64 | COc1ccc(OC)c2c1C(=O)c1ccc(-c3nnn[nH]3)cc1C2=O | 260 to 262
65 | Nc1ccc2ccccc2c1-c1c(P(=O)(c2ccccc2)c2ccccc2)ccc2ccccc12 | 133
66 | COc1cccc2c1nc(C(F)F)n2-c1nc(N2CCOCC2)nc(N2CCN(S(=O)(=O)C(F)(F)F)CC2)n1 | 272 to 273
67 | CNS(=O)(=O)c1cnc2ccc(OC)cc2c1O | 293 to 294
68 | Oc1ccc(Oc2cccc(-c3c(Cc4ccccc4)cnc4c(C(F)(F)F)cccc34)c2)cc1 | 55 to 60
69 | Cc1c(NC(=O)c2ccc(-c3cccc(F)c3)cc2)ccc2cc(CN3CCCC3)cnc12 | 158 to 159
70 | COc1ccc(-c2cnc3cc4cn(Cc5ccccc5)nc4cc3n2)cc1F | 225 to 227
71 | Cn1ncc2ccc(OCCCCl)cc2c1=O | 252 to 253
72 | COc1ccc(-c2nn(CCCCCCBr)c(=O)c3ccccc23)cc1OC | 83 to 84

Row | Compound | melting point [°C]
73 | Cc1nc(CC(C)C)c(C#N)c(-c2ccc(Cl)cc2)c1C(=O)OC(C)(C)C | 70 to 72
74 | C=CCON1C(=O)c2ccc(Cl)c3c(N4CC[C@H](NC(=O)OC(C)(C)C)C4)cc(Cl)c(c23)C1=O | 123 to 125
75 | O=C(Nc1ccccc1)c1nc(-c2ccc(Cl)cc2Cl)c(-c2ccc(Cl)cc2)s1 | 167 to 168
76 | O=c1[nH]c2ccccc2n1-c1cc(Cl)ccc1O | 248 to 250
77 | CC(C)(Oc1ccc(CCCc2cc(-c3ccccc3)no2)cc1)C(=O)O | 66 to 70
78 | CCN1C(=O)CCCc2ccc(Nc3ncc(Br)c(Nc4c(F)cccc4C(=O)NC)n3)cc21 | 231 to 232
79 | CCCc1nc2cc(C(=O)c3ccccc3)ccc2n1Cc1ccc(C(=O)OCC)cc1 | 126 to 128
80 | CCOc1c2ccccc2c(C=O)c2ccccc12 | 88 to 90
81 | O=S(=O)(Nc1ccc(Cl)cc1I)c1ccc2ncsc2c1 | 162
82 | O=C(O)COc1ccc(Nc2nccc(-c3ccncc3)n2)cc1 | 308 to 310
83 | CC(=O)N1CCN(Cc2nnc(-c3cc4cccc(N(C)S(=O)(=O)c5cccs5)c4[nH]3)s2)CC1 | 194 to 195
84 | Cc1cc(-c2ccc(Cl)c(Cl)c2)nc(-n2cnc(-c3ncc(S(N)(=O)=O)s3)c2)n1 | 230
85 | Cc1cccc(CCOc2ccc(C=C3SC(=O)NC3=O)cc2)n1 | 180 to 182
86 | COC(=O)C(=O)c1ccc(OC/C=C/c2c(C(C)C)nc3ccccc3c2-c2ccc(F)cc2)cc1 | 109 to 111
87 | Cn1cc(F)cnc1=O | 177 to 178
88 | Nc1cc(C(=O)CCCCCl)cc2c1OCC2 | 129 to 131
89 | Cc1nc2cnccc2n1-c1ccc(OCc2cccc(SCc3nc4cc(F)ccc4s3)c2)cc1 | 119 to 121
90 | COCc1ccoc1-c1cc(-n2c(N)nc3ccccc32)ccc1C | 174 to 176
91 | N#CC1(N2CCN(c3ccc(N4CC(CCC(N)=O)OC4=O)cc3F)CC2)CCOCC1 (stereo unspecified) | 134 to 137
92 | CC(F)(F)S(=O)(=O)c1c(C(N)=S)nn(-c2c(Cl)cc(C(F)(F)F)cc2Cl)c1N | 228 to 229
93 | O=C(O)c1cnc2cc(C3CCCCC3)ccc2c1O | 241 to 243
94 | COc1cc(OC)c(C(=O)C=Cc2ccc3c(c2)OCO3)c(OP(=O)(O)O)c1 | 79 to 80
95 | Cc1ccc(S(C)(=O)=O)c(S(=O)(=O)NC(C)(C)C)c1 | 129 to 133
96 | O=C1C(=O)c2ccc(Br)cc2C2=C1SCC1(CCN(CC(O)COc3ccc4cc(Br)ccc4c3)CC1)O2 (stereo unspecified) | 104 to 105
